The results in this text go back to paper PMC3546728, “Bacterial Over-Expression and Purification of the 3′phosphoadenosine 5′phosphosulfate (PAPS) Reductase Domain of Human FAD Synthase: Functional Characterization and Homology Modeling” (International Journal of Molecular Sciences, 2012).

In test [1] the target is T1, 6-His-Δ1-328-hFADS (Homo sapiens, UniProt Q8NFF5).
T1 construct: gene FLAD1; C-terminal PAPS reductase domain, residues 329-587; vector pH6EX3; E. coli Rosetta (DE3); theoretical 31499 Da, ~28 kDa on SDS-PAGE
T1 sequence (Q8NFF5 329-587, stated change not applied): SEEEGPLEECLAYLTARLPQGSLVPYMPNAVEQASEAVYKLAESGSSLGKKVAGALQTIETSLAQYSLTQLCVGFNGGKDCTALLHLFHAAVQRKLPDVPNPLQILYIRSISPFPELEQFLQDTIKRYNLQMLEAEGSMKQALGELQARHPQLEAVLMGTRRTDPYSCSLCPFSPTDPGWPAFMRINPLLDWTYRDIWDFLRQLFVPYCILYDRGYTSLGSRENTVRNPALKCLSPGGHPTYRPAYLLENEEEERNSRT
Description: fluorimetric FAD synthesis rate. It is filed as biochemical. To be noted: competitive; data not shown.

Test [2] addresses T1, 6-His-Δ1-328-hFADS. Description: absorbance spectrum of purified holoprotein; HPLC of flavin released by acid. It is filed as binding. The settings on record: co-purified, tightly bound FAD, 40 mM Hepes/Na, 5 mM β-mercaptoethanol, pH 7.4.

Each structure is given as a SMILES string.

For `Nc1nc2c(ncn2[C@@H]2O[C@H](COP(=O)(O)OP(=O)(O)O)[C@@H](O)[C@H]2O)c(=O)[nH]1` [GDP], in test [1], the “fluorimetric FAD synthesis rate” value is on record as “no significant changes were found in competitive inhibition by GDP (data not shown)”.

Take `Cc1cc2nc3c(=O)[nH]c(=O)nc-3n(C[C@H](O)[C@H](O)[C@H](O)COP(=O)(O)OP(=O)(O)OC[C@H]3O[C@@H](n4cnc5c(N)ncnc54)[C@H](O)[C@@H]3O)c2cc1C` [FAD]: the FAD/protein monomer ratio result in test [2] was “demonstrates that the bound cofactor is FAD with a FAD/protein monomer ratio”.
